Data as given in ChEMBL document CHEMBL3044736, “Synthesis, characterization, solvatochromic properties, and antimicrobial evaluation of 5-acetyl-2-thioxo-dihydro-pyrimidine-4,6-dione-based chalcones” (2013).
In brackets after ≈: the same amount, converted by molar mass.

Experiments:
Assay type in all cases: functional
Klebsiella pneumoniae [1] = assay: Antimicrobial activity against Klebsiella pneumoniae MTCC 109 by agar cup diffusion method
Staphylococcus aureus [2] = assay: Antimicrobial activity against Staphylococcus aureus MTCC 96 assessed as diameter of growth inhibition zone at 25 ug/ml after 18-24 hr by agar cup diffusion method; settings: read-out: DIZ
Penicillium [3] = assay: Antimicrobial activity against Penicillium wild strain assessed as diameter of growth inhibition zone at 100 ug/ml after 48-96 hr by agar cup diffusion method; settings: read-out: DIZ
Trichophyton rubrum [4] = assay: Antimicrobial activity against Trichophyton rubrum MTCC 296 assessed as diameter of growth inhibition zone at 50 ug/ml after 48-96 hr by agar cup diffusion method; settings: read-out: DIZ
Escherichia coli [5] = assay: Antimicrobial activity against Escherichia coli MTCC 443 by agar cup diffusion method
Klebsiella pneumoniae [6] = assay: Antimicrobial activity against Klebsiella pneumoniae MTCC 109 assessed as diameter of growth inhibition zone at 250 ug/ml after 18-24 hr by agar cup diffusion method; settings: read-out: DIZ
Klebsiella pneumoniae [7] = assay: Antimicrobial activity against Klebsiella pneumoniae MTCC 109 assessed as diameter of growth inhibition zone at 100 ug/ml after 18-24 hr by agar cup diffusion method; settings: read-out: DIZ
Streptococcus pyogenes [8] = assay: Antimicrobial activity against Streptococcus pyogenes MTCC 442 assessed as diameter of growth inhibition zone at 50 ug/ml after 18-24 hr by agar cup diffusion method; settings: read-out: DIZ
Penicillium [9] = assay: Antimicrobial activity against Penicillium wild strain assessed as diameter of growth inhibition zone at 25 ug/ml after 48-96 hr by agar cup diffusion method; settings: read-out: DIZ
Escherichia coli [10] = assay: Antimicrobial activity against Escherichia coli MTCC 443 assessed as diameter of growth inhibition zone at 250 ug/ml after 18-24 hr by agar cup diffusion method; settings: read-out: DIZ
Streptococcus pyogenes [11] = assay: Antimicrobial activity against Streptococcus pyogenes MTCC 442 assessed as diameter of growth inhibition zone at 25 ug/ml after 18-24 hr by agar cup diffusion method; settings: read-out: DIZ
Candida albicans [12] = assay: Antimicrobial activity against Candida albicans MTCC 227 assessed as diameter of growth inhibition zone at 50 ug/ml after 48-96 hr by agar cup diffusion method; settings: read-out: DIZ
Pseudomonas aeruginosa [13] = assay: Antimicrobial activity against Pseudomonas aeruginosa MTCC 1688 assessed as diameter of growth inhibition zone at 250 ug/ml after 18-24 hr by agar cup diffusion method; settings: read-out: DIZ
Escherichia coli [14] = assay: Antimicrobial activity against Escherichia coli MTCC 443 assessed as diameter of growth inhibition zone at 50 ug/ml after 18-24 hr by agar cup diffusion method; settings: read-out: DIZ
Candida albicans [15] = assay: Antimicrobial activity against Candida albicans MTCC 227 assessed as diameter of growth inhibition zone at 250 ug/ml after 48-96 hr by agar cup diffusion method; settings: read-out: DIZ
Aspergillus clavatus [16] = assay: Antimicrobial activity against Aspergillus clavatus MTCC 1323 by agar cup diffusion method
Pseudomonas aeruginosa [17] = assay: Antimicrobial activity against Pseudomonas aeruginosa MTCC 1688 assessed as diameter of growth inhibition zone at 100 ug/ml after 18-24 hr by agar cup diffusion method; settings: read-out: DIZ
Trichophyton rubrum [18] = assay: Antimicrobial activity against Trichophyton rubrum MTCC 296 assessed as diameter of growth inhibition zone at 250 ug/ml after 48-96 hr by agar cup diffusion method; settings: read-out: DIZ
Penicillium [19] = assay: Antimicrobial activity against Penicillium wild strain assessed as diameter of growth inhibition zone at 250 ug/ml after 48-96 hr by agar cup diffusion method; settings: read-out: DIZ
Staphylococcus aureus [20] = assay: Antimicrobial activity against Staphylococcus aureus MTCC 96 assessed as diameter of growth inhibition zone at 50 ug/ml after 18-24 hr by agar cup diffusion method; settings: read-out: DIZ
Penicillium [21] = assay: Antimicrobial activity against Penicillium wild strain by agar cup diffusion method
Streptococcus pyogenes [22] = assay: Antimicrobial activity against Streptococcus pyogenes MTCC 442 assessed as diameter of growth inhibition zone at 100 ug/ml after 18-24 hr by agar cup diffusion method; settings: read-out: DIZ
Penicillium [23] = assay: Antimicrobial activity against Penicillium wild strain assessed as diameter of growth inhibition zone at 50 ug/ml after 48-96 hr by agar cup diffusion method; settings: read-out: DIZ
Trichophyton rubrum [24] = assay: Antimicrobial activity against Trichophyton rubrum MTCC 296 assessed as diameter of growth inhibition zone at 100 ug/ml after 48-96 hr by agar cup diffusion method; settings: read-out: DIZ
Escherichia coli [25] = assay: Antimicrobial activity against Escherichia coli MTCC 443 assessed as diameter of growth inhibition zone at 25 ug/ml after 18-24 hr by agar cup diffusion method; settings: read-out: DIZ
Trichophyton rubrum [26] = assay: Antimicrobial activity against Trichophyton rubrum MTCC 296 by agar cup diffusion method
Pseudomonas aeruginosa [27] = assay: Antimicrobial activity against Pseudomonas aeruginosa MTCC 1688 assessed as diameter of growth inhibition zone at 25 ug/ml after 18-24 hr by agar cup diffusion method; settings: read-out: DIZ
Staphylococcus aureus [28] = assay: Antimicrobial activity against Staphylococcus aureus MTCC 96 assessed as diameter of growth inhibition zone at 100 ug/ml after 18-24 hr by agar cup diffusion method; settings: read-out: DIZ
Aspergillus clavatus [29] = assay: Antimicrobial activity against Aspergillus clavatus MTCC 1323 assessed as diameter of growth inhibition zone at 100 ug/ml after 48-96 hr by agar cup diffusion method; settings: read-out: DIZ
Aspergillus clavatus [30] = assay: Antimicrobial activity against Aspergillus clavatus MTCC 1323 assessed as diameter of growth inhibition zone at 25 ug/ml after 48-96 hr by agar cup diffusion method; settings: read-out: DIZ
Streptococcus pyogenes [31] = assay: Antimicrobial activity against Streptococcus pyogenes MTCC 442 assessed as diameter of growth inhibition zone at 250 ug/ml after 18-24 hr by agar cup diffusion method; settings: read-out: DIZ
Staphylococcus aureus [32] = assay: Antimicrobial activity against Staphylococcus aureus MTCC 96 assessed as diameter of growth inhibition zone at 250 ug/ml after 18-24 hr by agar cup diffusion method; settings: read-out: DIZ
Pseudomonas aeruginosa [33] = assay: Antimicrobial activity against Pseudomonas aeruginosa MTCC 1688 assessed as diameter of growth inhibition zone at 50 ug/ml after 18-24 hr by agar cup diffusion method; settings: read-out: DIZ
Staphylococcus aureus [34] = assay: Antimicrobial activity against Staphylococcus aureus MTCC 96 by agar cup diffusion method
Candida albicans [35] = assay: Antimicrobial activity against Candida albicans MTCC 227 by agar cup diffusion method
Pseudomonas aeruginosa [36] = assay: Antimicrobial activity against Pseudomonas aeruginosa MTCC 1688 by agar cup diffusion method
Aspergillus clavatus [37] = assay: Antimicrobial activity against Aspergillus clavatus MTCC 1323 assessed as diameter of growth inhibition zone at 50 ug/ml after 48-96 hr by agar cup diffusion method; settings: read-out: DIZ
Trichophyton rubrum [38] = assay: Antimicrobial activity against Trichophyton rubrum MTCC 296 assessed as diameter of growth inhibition zone at 25 ug/ml after 48-96 hr by agar cup diffusion method; settings: read-out: DIZ
Candida albicans [39] = assay: Antimicrobial activity against Candida albicans MTCC 227 assessed as diameter of growth inhibition zone at 25 ug/ml after 48-96 hr by agar cup diffusion method; settings: read-out: DIZ
Klebsiella pneumoniae [40] = assay: Antimicrobial activity against Klebsiella pneumoniae MTCC 109 assessed as diameter of growth inhibition zone at 25 ug/ml after 18-24 hr by agar cup diffusion method; settings: read-out: DIZ
Escherichia coli [41] = assay: Antimicrobial activity against Escherichia coli MTCC 443 assessed as diameter of growth inhibition zone at 100 ug/ml after 18-24 hr by agar cup diffusion method; settings: read-out: DIZ
Streptococcus pyogenes [42] = assay: Antimicrobial activity against Streptococcus pyogenes MTCC 442 by agar cup diffusion method
Klebsiella pneumoniae [43] = assay: Antimicrobial activity against Klebsiella pneumoniae MTCC 109 assessed as diameter of growth inhibition zone at 50 ug/ml after 18-24 hr by agar cup diffusion method; settings: read-out: DIZ
Candida albicans [44] = assay: Antimicrobial activity against Candida albicans MTCC 227 assessed as diameter of growth inhibition zone at 100 ug/ml after 48-96 hr by agar cup diffusion method; settings: read-out: DIZ
Aspergillus clavatus [45] = assay: Antimicrobial activity against Aspergillus clavatus MTCC 1323 assessed as diameter of growth inhibition zone at 250 ug/ml after 48-96 hr by agar cup diffusion method; settings: read-out: DIZ

`O=C(/C=C/c1ccccc1Cl)C1C(=O)NC(=S)NC1=O` was tested, and the MBC (Klebsiella pneumoniae [1]) was 250 µg/mL (≈ 810 µM), the MIC (Klebsiella pneumoniae [1]) was 200 µg/mL (≈ 648 µM) and the zone of inhibition at 25 µg/mL (Staphylococcus aureus [2]) was 10 mm. It also gave a zone of inhibition at 100 µg/mL (Penicillium [3]) of 21 mm, a zone of inhibition at 50 µg/mL (Trichophyton rubrum [4]) of 20 mm and an MBC (Escherichia coli [5]) of 500 µg/mL (≈ 1620 µM). For the same compound, the MIC (Escherichia coli [5]) was 250 µg/mL (≈ 810 µM), the zone of inhibition at 250 µg/mL (Klebsiella pneumoniae [6]) was 18 mm and the zone of inhibition at 100 µg/mL (Klebsiella pneumoniae [7]) was 15 mm. For the same compound, the zone of inhibition at 50 µg/mL (Streptococcus pyogenes [8]) was 14 mm, the zone of inhibition at 25 µg/mL (Penicillium [9]) was 18 mm and the zone of inhibition at 250 µg/mL (Escherichia coli [10]) was 16 mm. For the same compound, the zone of inhibition at 25 µg/mL (Streptococcus pyogenes [11]) was 13 mm, the zone of inhibition at 50 µg/mL (Candida albicans [12]) was 22 mm and the zone of inhibition at 250 µg/mL (Pseudomonas aeruginosa [13]) was 18 mm. The zone of inhibition at 50 µg/mL (Escherichia coli [14]) was 14 mm, the zone of inhibition at 250 µg/mL (Candida albicans [15]) was 23 mm and the MFC (Aspergillus clavatus [16]) was over 1000 µg/mL. For the same compound, the MIC (Aspergillus clavatus [16]) was over 1000 µg/mL, the zone of inhibition at 100 µg/mL (Pseudomonas aeruginosa [17]) was 17 mm and the zone of inhibition at 250 µg/mL (Trichophyton rubrum [18]) was 21 mm. The zone of inhibition at 250 µg/mL (Penicillium [19]) was 22 mm, the zone of inhibition at 50 µg/mL (Staphylococcus aureus [20]) was 14 mm and the MFC (Penicillium [21]) was over 1000 µg/mL. For the same compound, the MIC (Penicillium [21]) was over 1000 µg/mL, the zone of inhibition at 100 µg/mL (Streptococcus pyogenes [22]) was 15 mm and the zone of inhibition at 50 µg/mL (Penicillium [23]) was 18 mm. It also gave a zone of inhibition at 100 µg/mL (Trichophyton rubrum [24]) of 19 mm, a zone of inhibition at 25 µg/mL (Escherichia coli [25]) of 13 mm and an MFC (Trichophyton rubrum [26]) of 500 µg/mL (≈ 1620 µM). For the same compound, the MIC (Trichophyton rubrum [26]) was 500 µg/mL (≈ 1620 µM), the zone of inhibition at 25 µg/mL (Pseudomonas aeruginosa [27]) was 10 mm and the zone of inhibition at 100 µg/mL (Staphylococcus aureus [28]) was 17 mm. It also gave a zone of inhibition at 100 µg/mL (Aspergillus clavatus [29]) of 21 mm, a zone of inhibition at 25 µg/mL (Aspergillus clavatus [30]) of 18 mm and a zone of inhibition at 250 µg/mL (Streptococcus pyogenes [31]) of 16 mm. It also gave a zone of inhibition at 250 µg/mL (Staphylococcus aureus [32]) of 18 mm, a zone of inhibition at 50 µg/mL (Pseudomonas aeruginosa [33]) of 14 mm and an MBC (Staphylococcus aureus [34]) of 500 µg/mL (≈ 1620 µM). The MIC (Staphylococcus aureus [34]) was 250 µg/mL (≈ 810 µM), the MFC (Candida albicans [35]) was over 1000 µg/mL and the MIC (Candida albicans [35]) was 250 µg/mL (≈ 810 µM). It also gave an MBC (Pseudomonas aeruginosa [36]) of 500 µg/mL (≈ 1620 µM), an MIC (Pseudomonas aeruginosa [36]) of 250 µg/mL (≈ 810 µM) and a zone of inhibition at 50 µg/mL (Aspergillus clavatus [37]) of 19 mm. It also gave a zone of inhibition at 25 µg/mL (Trichophyton rubrum [38]) of 19 mm, a zone of inhibition at 25 µg/mL (Candida albicans [39]) of 21 mm and a zone of inhibition at 25 µg/mL (Klebsiella pneumoniae [40]) of 12 mm. For the same compound, the zone of inhibition at 100 µg/mL (Escherichia coli [41]) was 15 mm, the MBC (Streptococcus pyogenes [42]) was 250 µg/mL (≈ 810 µM) and the MIC (Streptococcus pyogenes [42]) was 250 µg/mL (≈ 810 µM). The zone of inhibition at 50 µg/mL (Klebsiella pneumoniae [43]) was 13 mm, the zone of inhibition at 100 µg/mL (Candida albicans [44]) was 22 mm and the zone of inhibition at 250 µg/mL (Aspergillus clavatus [45]) was 22 mm.
